Test results reported in PMC6792352, “Limited Chemical Structural Diversity Found to Modulate Thyroid Hormone Receptor in the Tox21 Chemical Library” (Environmental Health Perspectives, 2019).
Structures can show the parent of a compound that is named as a salt.

Assay: in vitro
Settings: rat, gh3-tre-luc cells

CC(=O)c1ccc2c(c1)Cc1ccccc1-2 [2-Acetylfluorene]
CC50 at 24 h (AC50 (uM) modified / 1000): > 90 µM

CC(=O)c1ccccn1 [2-Acetylpyridine]
CC50 at 24 h (AC50 (uM) modified / 1000): > 90 µM

CC(=O)c1ccc[nH]1 [2-Acetylpyrrole]
CC50 at 24 h (AC50 (uM) modified / 1000): > 90 µM

CC(=O)c1nccs1 [2-Acetylthiazole]
CC50 at 24 h (AC50 (uM) modified / 1000): > 90 µM

C=CC(=O)NC(C)(C)CS(=O)(=O)O [2-Acrylamido-2-methyl-1-propanesulfonic acid]
CC50 at 24 h (AC50 (uM) modified / 1000): > 90 µM

C=CCc1ccccc1O [2-Allylphenol]
CC50 at 24 h (AC50 (uM) modified / 1000): > 90 µM

Nc1ccc2ccccc2c1S(=O)(=O)O [2-Amino-1-naphthalenesulfonic acid]
CC50 at 24 h (AC50 (uM) modified / 1000): > 90 µM

Nc1cc(S(=O)(=O)O)ccc1O [2-Amino-1-phenol-4-sulfonic acid]
CC50 at 24 h (AC50 (uM) modified / 1000): > 90 µM

CC(C)C(C)(N)C#N (centres unmarked) [2-Amino-2,3-dimethylbutanenitrile]
CC50 at 24 h (AC50 (uM) modified / 1000, Tox21_110001=Tox21_302196, viability, 1 nM T3 present, 24 h): > 90 µM

CC(C)CC(C)(N)C#N (centres unmarked) [2-Amino-2,4-dimethylpentanenitrile]
CC50 at 24 h (AC50 (uM) modified / 1000): > 90 µM

CCC(N)(CO)CO [2-Amino-2-ethyl-1,3-propanediol]
CC50 at 24 h (AC50 (uM) modified / 1000): > 90 µM

CC(C)(N)CO [2-Amino-2-methylpropan-1-ol]
CC50 at 24 h (AC50 (uM) modified / 1000): > 90 µM

CC(C)(N)C#N [2-Amino-2-methylpropionitrile]
CC50 at 24 h (AC50 (uM) modified / 1000): > 90 µM

Cn1c(N)nc2c3cccnc3ccc21 [2-Amino-3-methyl-3H-imidazo[4,5-f]quinoline]
CC50 at 24 h (AC50 (uM) modified / 1000, Tox21_110001=Tox21_200693, viability, 1 nM T3 present, 24 h): 36.1 µM

Nc1nc(Cl)cc(Cl)n1 [2-Amino-4,6-dichloropyrimidine]
CC50 at 24 h (AC50 (uM) modified / 1000): > 90 µM

Nc1nc(-c2ccc([N+](=O)[O-])cc2)cs1 [2-Amino-4-(p-nitrophenyl)thiazole]
CC50 at 24 h (AC50 (uM) modified / 1000): > 90 µM

Cc1cc(S(=O)(=O)O)c(N)cc1Cl [2-Amino-4-chloro-5-methylbenzenesulfonic acid]
CC50 at 24 h (AC50 (uM) modified / 1000): > 90 µM

Nc1cc(Cl)c([N+](=O)[O-])cc1O [2-Amino-4-chloro-5-nitrophenol]
CC50 at 24 h (AC50 (uM) modified / 1000): 36.9 µM

Nc1cc(Cl)ccc1O [2-Amino-4-chlorophenol]
CC50 at 24 h (AC50 (uM) modified / 1000): 30.7 µM

COc1cccc2sc(N)nc12 [2-Amino-4-methoxybenzothiazole]
CC50 at 24 h (AC50 (uM) modified / 1000): > 90 µM

Cc1cccc2sc(N)nc12 [2-Amino-4-methylbenzothiazole]
CC50 at 24 h (AC50 (uM) modified / 1000): > 90 µM

Cc1ccc(O)c(N)c1 [2-Amino-4-methylphenol]
CC50 at 24 h (AC50 (uM) modified / 1000): 33.5 µM

Nc1nc(-c2ccccc2)cs1 [2-Amino-4-phenylthiazole hydrobromide hydrate]
CC50 at 24 h (AC50 (uM) modified / 1000): > 90 µM

Nc1nc(CC(=O)O)cs1 [2-Amino-4-thiazoleacetic acid]
CC50 at 24 h (AC50 (uM) modified / 1000): > 90 µM

Cc1cc2nc(N)sc2cc1C [2-Amino-5,6-dimethylbenzothiazole]
CC50 at 24 h (AC50 (uM) modified / 1000): > 90 µM

Nc1nnc(-c2ccc([N+](=O)[O-])o2)o1 [2-Amino-5-(5-nitro-2-furyl)-1,3,4-oxadiazole]
CC50 at 24 h (AC50 (uM) modified / 1000): 59 µM

Cc1cc(N)c(S(=O)(=O)O)cc1Cl [2-Amino-5-chloro-4-methylbenzenesulfonic acid]
CC50 at 24 h (AC50 (uM) modified / 1000): > 90 µM

Cc1ccc(N)c(S(=O)(=O)O)c1 [2-Amino-5-methylbenzenesulfonic acid]
CC50 at 24 h (AC50 (uM) modified / 1000): > 90 µM

Nc1ccc([N+](=O)[O-])cc1O [2-Amino-5-nitrophenol]
CC50 at 24 h (AC50 (uM) modified / 1000): 82.7 µM

Nc1ncc([N+](=O)[O-])s1 [2-Amino-5-nitrothiazole]
CC50 at 24 h (AC50 (uM) modified / 1000): > 90 µM

CCOc1ccc2nc(N)sc2c1 [2-Amino-6-ethoxybenzothiazole]
CC50 at 24 h (AC50 (uM) modified / 1000): > 90 µM

COc1ccc2nc(N)sc2c1 [2-Amino-6-methoxybenzothiazole]
CC50 at 24 h (AC50 (uM) modified / 1000): > 90 µM

CC(C)CCCC(C)N (centres unmarked) [2-Amino-6-methylheptane]
CC50 at 24 h (AC50 (uM) modified / 1000): > 50 µM

CC(C)NC(=O)c1ccccc1N [2-Amino-N-(1-methylethyl)benzamide]
CC50 at 24 h (AC50 (uM) modified / 1000): > 90 µM

CN(C1CCCCC1)S(=O)(=O)c1ccccc1N [2-Amino-N-cyclohexyl-N-methylbenzenesulfonamide]
CC50 at 24 h (AC50 (uM) modified / 1000): > 90 µM

Cc1cccc(O)c1N [2-Amino-m-cresol]
CC50 at 24 h (AC50 (uM) modified / 1000): 66.6 µM

Nc1ccc2cc3ccccc3cc2c1 [2-Aminoanthracene]
CC50 at 24 h (AC50 (uM) modified / 1000): > 90 µM

Nc1ccc2c(c1)C(=O)c1ccccc1C2=O [2-Aminoanthraquinone]
CC50 at 24 h (AC50 (uM) modified / 1000): > 90 µM
